{"source": "patent US9744164B2", "about": "“Neuroprotective polyphenol analogs” (Salk Institute for Biological Studies, priority 2011, dated 2017)", "key": {"[1]": {"tested_on": "N9 microglial cells", "assay": "anti-inflammatory assay, LPS-induced microglial activation (NO release)", "type": "cell-based, mouse", "settings": "bacterial lipopolysaccharide, derivative 1-10 μM, 24 hr", "experimental": "Anti-inflammatory assay. Mouse N9 microglial cells plated in DME with 7.5% DFCS were treated with 10 μg/ml bacterial lipopolysaccharide (Sigma) alone or in the presence of the Fisetin derivatives (1-10 μM) or Fisetin (10 μM) as a positive control. After 24 hr the medium was removed, spun briefly to remove floating cells and 100 μl assayed for NO using 100 μl of the Griess Reagent (Sigma) in a 96 well plate. After incubation for 10 min at room temperature the absorbance at 550 nm was read on a microplate reader.\nThree secondary screens allowed assessment of three key activities of Fisetin that are highly relevant to stroke, as well as other neurological disorders: maintenance of glutathione (GSH), the major endogenous cellular antioxidant, inhibition of LPS-induced microglial activation, an indicator of anti-inflammatory activity and PC12 cell differentiation, a measure of neurotrophic activity. All of these activities are relevant to the nerve cell loss seen in stroke (Gelderblom, et al., Stroke. 2009, 40 (5), 1849-1857; Pandya, et al., Cent. Nerv. Syst. Agents. Med. Chem. (2011) Apr. 27; Lewerenz, et al., J. Neurochem. (2010) 113 (2), 502-504). […] To assess GSH maintenance, total intracellular GSH levels after a 24 hr treatment with the compound both in the absence and presence of glutamate, an inducer of GSH loss and oxidative stress (Tan, et al., Curr. Top. Med. Chem. (2001) 1, 497-506; Maher, et al., Free Radical Research. (2006) 40 (10), 1105-1111) was measured Inhibition of LPS-induced microglial activation was determined by treating N9 mouse microglial cells with LPS alone and in the presence of the compounds and assaying NO release into the medium 24 hr later (Zheng, et al., Int. Immunopharmacol. (2008) 8, (3), 484-494). PC12 cell differentiation was determined by treating PC12 cells with the compounds and looking at neurite outgrowth after 24 hr. In all cases, Fisetin was used as a positive control (Sagara, et al., J. Neurochem. (2004) 90, 1144-1155).\nThe roles of the four different hydroxyl groups in the activity of Fisetin were studied. […] Cell viability was determined after 24 hr by the MTT assay. The ability to maintain GSH (GSH) was determined by treating HT22 cells with different doses of each derivative (1-10 μM) in the presence of 5 mM glutamate. After 24 hr cell extracts were prepared and analyzed for total GSH. Fisetin (10 μM) was used as a positive control. The ability to induce PC12 cell differentiation (PC12 diff'n) was determined by treating PC12 cells in N2 medium with different doses of each derivative (1-10 μM) for 24 hr. Differentiation was assessed by visual inspection with Fisetin (10 μM) as a positive control. Anti-inflammatory activity (microglia) was assessed in N9 microglial cells treated with bacterial lipopolysaccharide alone or in the presence different doses of each derivative (1-10 μM) for 24 hr. Fisetin was used as a positive control. TEAC values, a measure of direct antioxidant activity, were determined using the ABTS+ decolorization assay."}, "[2]": {"tested_on": "Nrf2", "assay": "Nrf2 induction, SDS-PAGE and Western blotting of nuclear extracts", "type": "cell-based", "settings": "cells treated 1, 2 and 4 hr at most protective concentration", "experimental": "SDS-PAGE and immunoblotting. For immunoblotting of Nrf2, nuclear extracts were prepared as described (Schreiber, et al., Nucleic Acids Res. (1989) 17 (15), 6419) from untreated cells and cells treated with the Fisetin derivatives for 1, 2 and 4 hr. Fisetin was used as a positive control. […] Protein concentrations were determined using the BCA protein assay (Pierce). Equal amounts of protein were solubilized in 2.5× SDS-sample buffer, separated on 10% SDS-polyacrylamide gels and transferred to nitrocellulose. Equal loading and transfer of the samples was confirmed by staining the nitrocellulose with Ponceau-S. Transfers were blocked for 1 hr at room temperature with 5% nonfat milk in TBS/0.1% Tween 20 and then incubated overnight at 4° C. in the primary antibody diluted in 5% BSA in TBS/0.05% Tween 20. The primary antibodies used were: anti-Nrf2 (#SC13032; 1/1000) from Santa Cruz Biotechnology (Santa Cruz, Calif.) and anti-β-actin (#5125; 1/20,000) from Cell Signaling (Beverly, Mass.). The transfers were rinsed with TB S/0.05% Tween 20 and incubated for 1 hr at room temperature in horseradish peroxidase-goat anti-rabbit or goat anti-mouse (Biorad, Hercules, Calif.) diluted 1/5000 in 5% nonfat milk in TBS/0.1% Tween 20. The immunoblots were developed with the Super Signal reagent (Pierce, Rockford, Ill.).\nThe transcription factor Nrf2 plays a key role in regulating GSH metabolism in many different cell types (Lewerenz, et al., Antioxidant & Redox Signaling. (2011) 14, 1449-1465). We have shown that Fisetin can induce Nrf2 and this correlates with its ability to enhance GSH levels (Maher, P. et al., Genes. Nutr. (2009) Sep. 10). To determine if the derivatives which can maintain GSH levels do so by increasing Nrf2 we looked at Nrf2 levels in the nuclei of derivative-treated cells using Fisetin as a positive control (Table 4). […] This was particularly true for the derivatives based on the quinoline scaffold where none of them increased Nrf2 despite being very effective at maintaining GSH levels.\nThe ability of the derivatives that maintain GSH levels to induce the transcription factor Nrf2 was assayed by SDS-PAGE and Western blotting of nuclear extracts of untreated and derivative-treated cells. Fisetin treatment was used as a positive control."}, "[3]": {"tested_on": "HT22 cells", "assay": "in vitro ischemia assay (HT22 cell IAA assay)", "type": "cell-based, mouse", "settings": "for EC50 in vitro ischemia: HT22 cells, 20 μM IAA 2 hr, viability by MTT after 24 hr, 'no' = no protection", "experimental": "For these studies, cultured HT22 mouse hippocampal cells were used as an in vitro stroke assay. HT22 cells were treated with iodoacetic acid (IAA), an irreversible inhibitor of glyceraldehyde 3-phosphate dehydrogenase (G3PDH) for 2 hr alone or in the presence of varying concentrations of Fisetin. G3PDH is an enzyme of the glycolysis pathway, which catalyzes the synthesis of 1,3-bisphosphoglycerate, a “high energy” intermediate used for the synthesis of ATP. Cell survival was measured using a standard colorimetric MTT (3-(4,5-dimethylthiazol-2-yl)-2,5-diphenyltetrazolium bromide) assay for cell survival MTT is a pale yellow substrate that is cleaved by living cells to yield a dark blue formazan product.\nCytotoxicity assay. Cell viability was determined by a modified version of 3-(4,5-dimethylthiazol-2-yl)-2,5-diphenyl tetrazolium bromide (MTT) assay based on the standard procedure (Maher, et al., Brain Research. (2007), supra). Cells were seeded onto 96-well microtiter plates at a density of 5×10^3 cells per well. For the in vitro ischemia assay, the next day, the medium was replaced with DMEM supplemented with 7.5% DFCS and the cells were treated with 20 μM iodoacetic acid (IAA) alone or in the presence of the different derivatives. After 2 hr the medium in each well was aspirated and replaced with fresh medium without IAA but containing the derivatives. 20 hr later, the medium in each well was aspirated and replaced with fresh medium containing 2.5 μg/ml MTT. After 4 hr of incubation at 37° C., the cells were solubilized with 100 μl of a solution containing 50% dimethylformamide and 20% SDS (pH 4.7). The absorbance at 570 nm was measured on the following day with a microplate reader (Molecular Devices). Results were confirmed by visual inspection of the wells. Controls included compound alone to test for toxicity and compound with no cells to test for interference with the assay chemistry.\nFor a primary screen, an in vitro ischemia model in combination with the HT22 nerve cell line (Maher, et al., Brain Research. (2007) 1173, 117-125) was chosen. […] To induce ischemia in the HT22 cells we used iodoacetic acid (IAA), a well-known, irreversible inhibitor of the glycolytic enzyme glyceraldehyde 3-phosphate dehydrogenase (G3PDH) (Winkler, et al., Exp. Eye Res. (2003) 76, 715-723). IAA has been used in a number of other studies to induce ischemia in nerve cells (Reshef, et al., Neurosci. Lett. (1997) 238, 37-40; Sperling, et al., Neursci. Lett. (2003) 351, 137-140; Rego, et al., Neurochem. Res. (1999) 24, 351-358; Sigalov, et al,. J. Mol. Neurosci. (2000) 15, 147-154; and Reiner, et al., Neurosci. Lett. (1990) 119, 175-178), including several recent screens for neuroprotective molecules (Biraboneye, et al., J. Med. Chem. (2009) 52 (14), 4358-4369; Biraboneye, et al., Chem. Med. Chem. (2010) 5 (1), 79-85). The changes following IAA treatment of neural cells are very similar to those seen in animal models of ischemic stroke (Lipton, et al., Physiol. Rev. (1999) 79, 1431-1568) and include alterations in membrane potential (Reiner, et al., Neurosci. Lett. (1990) 119, 175-178), breakdown of phospholipids (Taylor, et al., J. Pharmacol. Exp. Ther. (1996) 276, 1224-1231), loss of ATP (Winkler, et al., Exp. Eye Res. (2003) 76, 715-723; Sperling, et al., Neursci. Lett. (2003) 351, 137-140) and an increase in reactive oxygen species (ROS) (Taylor, et al., J. Pharmacol. Exp. Ther. (1996), supra; and Sperling, et al., Neursci. Lett. (2003) 351, 137-140).\nThe roles of the four different hydroxyl groups in the activity of Fisetin were studied. […] Cell viability was determined after 24 hr by the MTT assay. The ability to maintain GSH (GSH) was determined by treating HT22 cells with different doses of each derivative (1-10 μM) in the presence of 5 mM glutamate. After 24 hr cell extracts were prepared and analyzed for total GSH. Fisetin (10 μM) was used as a positive control. […]"}}, "data": [{"compound": "Cc1cc(O)c(C(=O)/C=C/c2ccc(O)c(O)c2)cc1C", "note": "[CMS-011, (E)-3-(3,4-dihydroxyphenyl)-1-(2-hydroxy-4,5-dimethylphenyl)prop-2-en-1-one]", "values": [{"measurement": "microglia (anti-inflammatory activity)", "setting": "[1]", "value": 94, "unit": "%"}, {"measurement": "Nrf2 (induction of transcription factor Nrf2)", "setting": "[2]", "value": "Yes"}]}, {"compound": "O=C(/C=C/c1ccc(O)c(O)c1)c1ccc2ccccc2c1O", "note": "[CMS-034, (E)-3-(3,4-dihydroxyphenyl)-1-(1-hydroxynaphthalen-2-yl)prop-2-en-1-one]", "values": [{"measurement": "microglia (anti-inflammatory activity)", "setting": "[1]", "value": 75, "unit": "%"}, {"measurement": "Nrf2 (induction of transcription factor Nrf2)", "setting": "[2]", "value": "Yes"}]}, {"compound": "O=c1c(O)c(-c2ccc(O)c(O)c2)oc2c1ccc1ccccc12", "note": "[CMS-040, 2-(3,4-dihydroxyphenyl)-3-hydroxy-4H-benzo[h]chromen-4-one]", "values": [{"measurement": "further enhancement of neuroprotective activity", "setting": "[3]; benzene ring added to A ring, relative to CMS-04P", "value": "~5.5", "unit": "fold"}, {"measurement": "microglia (anti-inflammatory activity)", "setting": "[1]", "value": 91, "unit": "%"}]}, {"compound": "COc1cc(-c2ccc(N3CCCC3)cc2)nc2ccccc12", "note": "[CMS-110, 4-methoxy-2-(4-(pyrrolidin-1-yl)phenyl)quinoline]", "values": [{"measurement": "EC50 in vitro ischemia", "setting": "[3]", "value": "no"}, {"measurement": "microglia (anti-inflammatory activity)", "setting": "[1]", "value": 67, "unit": "%"}]}, {"compound": "COc1cc(-c2ccc([N+](=O)[O-])c(O)c2)nc2ccccc12", "note": "[CMS-111, 4-methoxy-2-(3-hydroxy-4-nitrophenyl)quinoline]", "values": [{"measurement": "EC50 in vitro ischemia", "setting": "[3]", "value": "no"}, {"measurement": "microglia (anti-inflammatory activity)", "setting": "[1]", "value": 25, "unit": "%"}]}, {"compound": "Cc1cc2oc(-c3ccc(N(C)C)cc3)c(O)c(=O)c2cc1C", "note": "[CMS-117, 2-(4-(dimethylamino)phenyl)-3-hydroxy-6,7-dimethyl-4H-chromen-4-one]", "values": [{"measurement": "microglia (anti-inflammatory activity)", "setting": "[1]", "value": 11, "unit": "%"}, {"measurement": "Nrf2 (induction of transcription factor Nrf2)", "setting": "[2]", "value": "No"}]}, {"compound": "CN(C)c1ccc(-c2oc3c(ccc4ccccc43)c(=O)c2O)cc1", "note": "[CMS-118, 2-(4-(dimethylamino)phenyl)-3-hydroxy-4H-benzo[h]chromen-4-one]", "values": [{"measurement": "microglia (anti-inflammatory activity)", "setting": "[1]", "value": 0, "unit": "%"}, {"measurement": "Nrf2 (induction of transcription factor Nrf2)", "setting": "[2]", "value": "No"}]}, {"compound": "Cc1cc2oc(-c3ccc(N4CCCC4)cc3)c(O)c(=O)c2cc1C", "note": "[CMS-122, 3-hydroxy-6,7-dimethyl-2-(4-(pyrrolidin-1-yl)phenyl)-4H-chromen-4-one]", "values": [{"measurement": "microglia (anti-inflammatory activity)", "setting": "[1]", "value": 0, "unit": "%"}, {"measurement": "Nrf2 (induction of transcription factor Nrf2)", "setting": "[2]", "value": "No"}]}]}
